In US6737383B1, “Herbicidal oxadiazolidines” (priority 1999, dated 2004):

Experiments:
bamyardgrass = assay: Test B flood test barnyardgrass; assay type: in vivo, Echinochloa crus-galli
How it was run: (§1)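 Plants were grown to the 2-leaf stage before treatment with test chemical, then held in a greenhouse for twelve to sixteen days. Injury was visually rated against untreated controls on a 0–10 scale, where 0 is no effect and 10 is complete control.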

rice = assay: Test B flood test rice; assay type: in vivo, Oryza sativa
Method: (§2) At the same time, these crop and weed species were also treated with postemergence applications of test chemicals formulated in the same manner. Plants ranged in height from 2 to 18 cm (1- to 4-leaf stage) for postemergence treatments. Plant species in the flood test consisted of rice (Oryza sativa), smallflower flatsedge (Cyperus difformis), duck salad (Heteranthera limosa) and bamyardgrass (Echinochloa crus-galli) grown to the 2-leaf stage for testing. Treated plants and controls were maintained in a greenhouse for twelve to sixteen days, after which all species were compared to controls and visually evaluated. Plant response ratings, summarized in Table B, are based on a scale of 0 to 10 where 0 is no effect and 10 is complete control. A dash (−) response means no test result.

smallflower flatsedge = assay: Test B flood test smallflower flatsedge; assay type: in vivo, Cyperus difformis
How it was run: as §1

duck salad = assay: Test B flood test duck salad; assay type: in vivo, Heteranthera limosa
Method: as §2

sugar beet = assay: Test B pre/postemergence sugar beet; assay type: in vivo, Beta vulgaris
How it was run: (§3)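 Test chemicals in a non-phytotoxic solvent mixture with surfactant were sprayed preemergence onto planted seeds and postemergence onto plants 2 to 18 cm tall (1- to 4-leaf stage). After twelve to sixteen days in a greenhouse, injury was visually rated against untreated controls from 0 (no effect) to 10 (complete control).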

soybean = assay: Test B pre/postemergence soybean; assay type: in vivo, Glycine max
How it was run: as §3

surinam grass = assay: Test B pre/postemergence surinam grass; assay type: in vivo, Brachiaria decumbens
How it was run: as §3

wild oat = assay: Test B pre/postemergence wild oat; assay type: in vivo, Avena fatua
How it was run: as §3

corn = assay: Test B pre/postemergence corn; assay type: in vivo, Zea mays
How it was run: as §3

rape = assay: Test B pre/postemergence rape; assay type: in vivo, Brassica napus
How it was run: as §3

bedstraw = assay: Test B pre/postemergence bedstraw; assay type: in vivo, Galium aparine
How it was run: as §3

velvetleaf = assay: Test B pre/postemergence velvetleaf; assay type: in vivo, Abutilon theophrasti
How it was run: as §3

purple nutsedge = assay: Test B pre/postemergence purple nutsedge; assay type: in vivo, Cyperus rotundus
How it was run: as §3

cocklebur = assay: Test B pre/postemergence cocklebur; assay type: in vivo, Xanthium strumarium
How it was run: as §3

morningglory = assay: Test B pre/postemergence morningglory; assay type: in vivo, Ipomoea hederacea
How it was run: as §3

wheat = assay: Test B pre/postemergence wheat; assay type: in vivo, Triticum aestivum
How it was run: as §3

blackgrass = assay: Test B pre/postemergence blackgrass; assay type: in vivo, Alopecurus myosuroides
How it was run: as §3

crabgrass = assay: Test B pre/postemergence crabgrass; assay type: in vivo, Digitaria sanguinalis
How it was run: as §3

giant foxtail = assay: Test B pre/postemergence giant foxtail; assay type: in vivo, Setaria faberii
How it was run: as §3

pigweed = assay: Test B pre/postemergence pigweed; assay type: in vivo, Amaranthus retroflexus
How it was run: as §3

[1] = Rate 62 g/ha, flood test species, Pre-emergence, visual evaluation after twelve to sixteen days
[2] = Rate 125 g/ha, under heading Pre-emergence, flood test species, visual evaluation after twelve to sixteen days
[3] = Rate 250 g/ha, Pre-emergence (flood test species), scale 0 to 10, 0 is no effect, 10 is complete control
[4] = Rate 500 g/ha, Pre-emergence section of Table B, 0 to 10 scale (0 no effect, 10 complete control)
[5] = Postemergence, Rate 31 g/ha, visual rating, scale 0 to 10 (0 no effect, 10 complete control)
[6] = Postemergence, Rate 125 g/ha, scale 0 to 10, 0 is no effect, 10 is complete control
[7] = Postemergence, Rate 250 g/ha, scale 0 to 10, 0 is no effect, 10 is complete control
[8] = Preemergence, Rate 62 g/ha, scale 0 to 10 (0 no effect, 10 complete control)
[9] = Preemergence, Rate 250 g/ha, scale of 0 to 10 where 0 is no effect and 10 is complete control
[10] = Rate 62 g/ha, Postemergence, scale of 0 to 10 where 0 is no effect and 10 is complete control
[11] = Preemergence, Rate 31 g/ha, visual rating, scale 0 to 10 (0 no effect, 10 complete control)

C=C(C(=O)OC)C(C)n1c(=O)on(C(=O)N(c2ccccc2)C(C)C)c1=O (stereo not drawn) [Compound 651]
Plant response rating, Barnyardgrass (0 to 10 scale, 0 is no effect, 10 is complete control) (bamyardgrass; [1]): 0
Barnyardgrass plant response rating (0 to 10 scale, 0 is no effect, 10 is complete control) (bamyardgrass; [2]): 0
Barnyardgrass plant response rating (bamyardgrass; [3]): 0
Barnyardgrass plant response rating (bamyardgrass; [4]): 0
Plant response rating, Rice (0 to 10 scale, 0 is no effect, 10 is complete control) (rice; [1]): 0
Rice plant response rating (0 to 10 scale, 0 is no effect, 10 is complete control) (rice; [2]): 0
Rice plant response rating (rice; [3]): 0
Rice plant response rating (rice; [4]): 0
Plant response rating, S. Flatsedge (0 to 10 scale, 0 is no effect, 10 is complete control) (smallflower flatsedge; [1]): 0
S. Flatsedge plant response rating (0 to 10 scale, 0 is no effect, 10 is complete control) (smallflower flatsedge; [2]): 0
S. Flatsedge plant response rating (smallflower flatsedge; [3]): 0
S. Flatsedge plant response rating (smallflower flatsedge; [4]): 0
Plant response rating, Ducksalad (0 to 10 scale, 0 is no effect, 10 is complete control) (duck salad; [1]): 0
Ducksalad plant response rating (0 to 10 scale, 0 is no effect, 10 is complete control) (duck salad; [2]): 0
Ducksalad plant response rating (duck salad; [3]): 0
Ducksalad plant response rating (duck salad; [4]): 0

CC(C)N(C(=O)n1oc(=O)n(C2(C)CC2)c1=O)c1ccc(F)cc1 [Compound 362]
Sugarbeets plant response rating (sugar beet; [5]): 0
Plant response rating, Sugarbeets (sugar beet; [6]): 0
Plant response rating, Sugarbeets (sugar beet; [7]): 2
Plant response rating, Sugarbeets (sugar beet; [8]): 5
Sugarbeets plant response rating (0 to 10 scale) (sugar beet; Preemergence, Rate 125 g/ha): 7
Sugarbeets plant response rating (sugar beet; [9]): 8
Sugarbeets plant response rating (sugar beet; [10]): 0
Soybean plant response rating (soybean; [5]): 4
Plant response rating, Soybean (soybean; [6]): 5
Plant response rating, Soybean (soybean; [7]): 6
Plant response rating, Soybean (soybean; [8]): 0
Soybean plant response rating (0 to 10 scale) (soybean; Preemergence, Rate 125 g/ha): 1
Soybean plant response rating (soybean; [9]): 6
Soybean plant response rating (soybean; [10]): 4
B. signalgrass plant response rating (surinam grass; [5]): 1
Plant response rating, B. signalgrass (surinam grass; [6]): 5
Plant response rating, B. signalgrass (surinam grass; [7]): 7
B. signalgrass plant response rating (surinam grass; [11]): 2
Plant response rating, B. signalgrass (surinam grass; [8]): 4
B. signalgrass plant response rating (0 to 10 scale, 0 is no effect, 10 is complete control) (surinam grass; Preemergence, Rate 125 g/ha): 6
B. signalgrass plant response rating (surinam grass; [9]): 7
B. signalgrass plant response rating (surinam grass; [10]): 2
Wild oats plant response rating (wild oat; [5]): 0
Plant response rating, Wild oats (wild oat; [6]): 6
Plant response rating, Wild oats (wild oat; [7]): 6
Plant response rating, Wild oats (wild oat; [8]): 7
Wild oats plant response rating (0 to 10 scale) (wild oat; Preemergence, Rate 125 g/ha): 10
Wild oats plant response rating (wild oat; [9]): 10
Wild oats plant response rating (wild oat; [10]): 3
Corn plant response rating (corn; [5]): 0
Plant response rating, Corn (corn; [6]): 0
Plant response rating, Corn (corn; [7]): 0
Corn plant response rating (corn; [11]): 0
Plant response rating, Corn (corn; [8]): 0
Corn plant response rating (0 to 10 scale) (corn; Preemergence, Rate 125 g/ha): 3
Corn plant response rating (corn; [9]): 9
Corn plant response rating (corn; [10]): 0
Rape plant response rating (rape; [5]): 0
Plant response rating, Rape (rape; [6]): 0
Plant response rating, Rape (rape; [7]): 0
Plant response rating, Rape (rape; [8]): 0
Rape plant response rating (0 to 10 scale) (rape; Preemergence, Rate 125 g/ha): 3
Rape plant response rating (rape; [9]): 6
Rape plant response rating (rape; [10]): 0
Bedstraw plant response rating (bedstraw; [5]): 5
Plant response rating, Bedstraw (bedstraw; [6]): 9
Plant response rating, Bedstraw (bedstraw; [7]): 9
Bedstraw plant response rating (bedstraw; [11]): 8
Plant response rating, Bedstraw (bedstraw; [8]): 9
Bedstraw plant response rating (0 to 10 scale) (bedstraw; Preemergence, Rate 125 g/ha): 9
Bedstraw plant response rating (bedstraw; [9]): 10
Bedstraw plant response rating (bedstraw; [10]): 5
Velvetleaf plant response rating (velvetleaf; [5]): 0
Plant response rating, Velvetleaf (velvetleaf; [6]): 4
Plant response rating, Velvetleaf (velvetleaf; [7]): 7
Plant response rating, Velvetleaf (velvetleaf; [8]): 4
Velvetleaf plant response rating (0 to 10 scale) (velvetleaf; Preemergence, Rate 125 g/ha): 6
Velvetleaf plant response rating (velvetleaf; [9]): 6
Velvetleaf plant response rating (velvetleaf; [10]): 1
Nutsedge plant response rating (purple nutsedge; [5]): 0
Plant response rating, Nutsedge (purple nutsedge; [6]): 0
Plant response rating, Nutsedge (purple nutsedge; [7]): 0
Plant response rating, Nutsedge (purple nutsedge; [8]): 0
Nutsedge plant response rating (0 to 10 scale) (purple nutsedge; Preemergence, Rate 125 g/ha): 0
Nutsedge plant response rating (purple nutsedge; [9]): 3
Nutsedge plant response rating (purple nutsedge; [10]): 0
Cocklebur plant response rating (cocklebur; [5]): 0
Plant response rating, Cocklebur (cocklebur; [6]): 0
Cocklebur plant response rating (cocklebur; [11]): 0
Plant response rating, Cocklebur (cocklebur; [8]): 0
Cocklebur plant response rating (0 to 10 scale) (cocklebur; Preemergence, Rate 125 g/ha): 0
Cocklebur plant response rating (cocklebur; [9]): 0
Cocklebur plant response rating (cocklebur; [10]): 0
Morningglory plant response rating (morningglory; [5]): 0
Plant response rating, Morningglory (morningglory; [6]): 1
Plant response rating, Morningglory (morningglory; [7]): 1
Plant response rating, Morningglory (morningglory; [8]): 0
Morningglory plant response rating (0 to 10 scale) (morningglory; Preemergence, Rate 125 g/ha): 4
Morningglory plant response rating (morningglory; [9]): 6
Morningglory plant response rating (morningglory; [10]): 1
Wheat plant response rating (wheat; [5]): 0
Plant response rating, Wheat (wheat; [6]): 4
Plant response rating, Wheat (wheat; [7]): 6
Plant response rating, Wheat (wheat; [8]): 7
Wheat plant response rating (0 to 10 scale) (wheat; Preemergence, Rate 125 g/ha): 8
Wheat plant response rating (wheat; [9]): 8
Wheat plant response rating (wheat; [10]): 2
Blackgrass plant response rating (blackgrass; [5]): 8
Plant response rating, Blackgrass (blackgrass; [6]): 8
Plant response rating, Blackgrass (blackgrass; [7]): 8
Blackgrass plant response rating (blackgrass; [11]): 8
Plant response rating, Blackgrass (blackgrass; [8]): 9
Blackgrass plant response rating (0 to 10 scale) (blackgrass; Preemergence, Rate 125 g/ha): 10
Blackgrass plant response rating (blackgrass; [9]): 10
Blackgrass plant response rating (blackgrass; [10]): 8
Crabgrass plant response rating (crabgrass; [5]): 3
Plant response rating, Crabgrass (crabgrass; [6]): 6
Plant response rating, Crabgrass (crabgrass; [7]): 6
Plant response rating, Crabgrass (crabgrass; [8]): 5
Crabgrass plant response rating (0 to 10 scale) (crabgrass; Preemergence, Rate 125 g/ha): 8
Crabgrass plant response rating (crabgrass; [9]): 8
Crabgrass plant response rating (crabgrass; [10]): 3
Giant foxtail plant response rating (giant foxtail; [5]): 5
Plant response rating, Giant foxtail (giant foxtail; [6]): 8
Plant response rating, Giant foxtail (giant foxtail; [7]): 9
Plant response rating, Giant foxtail (giant foxtail; [8]): 10
Giant foxtail plant response rating (0 to 10 scale) (giant foxtail; Preemergence, Rate 125 g/ha): 10
Giant foxtail plant response rating (giant foxtail; [9]): 10
Giant foxtail plant response rating (giant foxtail; [10]): 6
Redroot pigweed plant response rating (pigweed; [5]): 0
Plant response rating, Redroot pigweed (pigweed; [6]): 4
Plant response rating, Redroot pigweed (pigweed; [7]): 6
Plant response rating, Redroot pigweed (pigweed; [8]): 8
Redroot pigweed plant response rating (0 to 10 scale) (pigweed; Preemergence, Rate 125 g/ha): 10
Redroot pigweed plant response rating (pigweed; [9]): 10
Redroot pigweed plant response rating (pigweed; [10]): 2
